# Laboratory results as given in patent publication US20260263425A1, “USE OF COMPOSITION CONTAINING CANDESARTAN OR AZILSARTAN” (GACHON UNIVERSITY OF INDUSTRY-ACADEMIC COOPERATION …, priority 2023, published 2026).
# Columns and labels:
# AKT PH domain [1] = assay: Insulin-stimulated membrane localization of AKT PH domain in palmitic acid-treated HepG2 cells; format: cell-based, Human; settings: 100 nM insulin 15 min, AKT PH mCherry
# Procedure: One mechanism of insulin resistance is that, in the state of obesity and diabetes, an increase in the concentration of calcium in the cytoplasm leads to calcium binding to PI(3, 4, 5)P3 present in the cell membrane, generating Ca^2+-PI(3, 4, 5)P3, which inhibits binding to the PH domain of AKT and suppresses AKT protein activity, thereby inducing insulin resistance. Accordingly, it was evaluated whether azilsartan and candesartan, which were shown in the above examples to attenuate palmitic acid-induced intracellular Ca^2+ overload, regulate the intracellular localization of the AKT PH domain, which functions as a biosensor for PI(3, 4, 5)P3.
# (§1) Specifically, CHO cells or HepG2 cells were transfected with cDNA encoding hAKT PHD (residues 1 to 144) using Lipofectamine (Life Technologies). To monitor the intracellular localization of endogenous AKT, liver sections were antigen activated with 10 mM Tris/HCl (pH 9.0) for 20 minutes, treated with serum-free protein blocking solution (DAKO) for 30 minutes, and permeabilized with 0.5% Tween 20 for 15 minutes. The liver sections were then incubated with anti-AKT PHD antibody (SKB1, #05-591, Sigma-Aldrich) and FITC-conjugated secondary antibody. After mounting, the liver sections were imaged with an LSM 980 laser scanning confocal microscope (Carl Zeiss), and the images were analyzed using ZEN software (Carl Zeiss).
# When administering azilsartan or candesartan to cells, the impairment induced by palmitic acid was recovered.
# HepG2 cells [2] = assay: Insulin-stimulated phosphorylation of Akt and downstream molecules in palmitic acid-treated HepG2 cells (immunoblot); format: cell-based, Human; settings: HepG2, 0.5 mM palmitic acid 16 h, ARB 5, 10, 20 μM; dose-dependent
# Procedure: Tissues and cells were lysed using a modified RIPA buffer (50 mM Tris-HCl pH 7.4, 1% Triton X-100, 150 mM NaCl, 1 mM EDTA; Cell Signaling Technology) freshly supplemented with 1 mM Na3VO4, […], and protease inhibitor cocktail (Complete Mini, Roche). Equal amounts of proteins were separated on 4-12% gels and electrophoretically transferred to polyvinylidene difluoride (PVDF) membranes. Immunoblots were visualized with horseradish peroxidase-conjugated secondary antibodies and enhanced chemiluminescence kits (ECL kits; GE Healthcare Life Sciences) using a charge-coupled device camera (Amersham ImageQuant 800). Specifically, nine FDA-approved ARBs (losartan, eprosartan, fimasartan, irbesartan, olmesartan, telmisartan, valsartan, azilsartan, and candesartan) commonly prescribed for the treatment of hypertension in human patients were administered to HepG2 cells at various concentrations (5 μM, 10 μM, and 20 μM) in combination with 0.5 mM palmitic acid for 16 hours. Then, the insulin-stimulated phosphorylation of the key insulin signaling molecule Akt and its downstream signaling molecules GSK3β and FOXO3 was investigated. The results of Example 1 indicate that azilsartan and candesartan have beneficial off-target effects on insulin signaling and intracellular Ca^2+ homeostasis that are distinct from their known effects as angiotensin receptor blockers. […]
# HepG2 cells [3] = assay: Intracellular Ca2+ level and lipid accumulation in palmitic acid-treated HepG2 cells (confocal microscopy, fluorescent dyes); format: cell-based, Human; settings: for lipid accumulation: palmitic acid-treated HepG2, BODIPY; for fluorescence intensity for intracellular Ca2+: palmitic acid-treated HepG2, Calbryte 630 AM
# Procedure: Subsequently, to determine whether ARBs can regulate intracellular Ca^2+ levels and lipid accumulation in HepG2 cells treated with palmitic acid, the effects of ARBs were evaluated using confocal microscopy and the fluorescent dyes Calbryte 630 AM (for intracellular Ca^2+) and BODIPY (for lipids).
# Specifically, for intracellular Ca^2+ concentration and lipid accumulation, HepG2 cells were plated on slide glasses, treated with 0.5 mM palmitic acid for 16 hours, and incubated with 4 μM Fura-2-AM (Teflabs), […] Calbryte 630 AM, or […] BODIPY in PBS for 30 minutes at 37° C. in the dark. The cells were then washed with PBS for 10 minutes. Subsequently, the cells were counterstained with 4,6-diamidino-2-phenylindole (DAPI) to visualize nuclei. After mounting, the stained slides were imaged using a Zeiss LSM 700 or Zeiss LSM 980 laser scanning confocal microscope (Carl Zeiss) and analyzed using ZEN 2010 Software (Carl Zeiss). Intracellular Ca^2+ was quantified from the microscopic images using the NIH ImageJ software (https://imagej.nih.gov/ij/, 1997-2017). […]
# AKT PH domain [4] = assay: Insulin-stimulated membrane localization of AKT PH domain in PMA-treated CHO-IR cells; format: cell-based, Chinese hamster
# Procedure: as §1, with “Zeiss). Similarly, in phorbol myristate acetate (PMA)-treated Chinese hamster ovary-insulin receptor (CHO-IR) cells, it was confirmed that insulin-stimulated membrane localization of the AKT PH domain was rescued by treatment with azilsartan or candesartan (FIG. 3b).” for “Zeiss).”
# HFD-fed mice = assay: Postprandial phosphorylation of AKT and downstream substrates in HFD-fed mice; format: in vivo; settings: fasted overnight, re-fed HFD 4 hours
# Procedure: Tissues and cells were lysed using a modified RIPA buffer (50 mM Tris-HCl pH 7.4, 1% Triton X-100, 150 mM NaCl, 1 mM EDTA; Cell Signaling Technology) freshly supplemented with 1 mM Na3VO4, […], and protease inhibitor cocktail (Complete Mini, Roche). Equal amounts of proteins were separated on 4-12% gels and electrophoretically transferred to polyvinylidene difluoride (PVDF) membranes. Immunoblots were visualized with horseradish peroxidase-conjugated secondary antibodies and enhanced chemiluminescence kits (ECL kits; GE Healthcare Life Sciences) using a charge-coupled device camera (Amersham ImageQuant 800). To elucidate the role of candesartan on insulin signaling in vivo, mice were fasted overnight and then re-fed an HFD for 4 hours, and postprandial phosphorylation of AKT and its downstream signaling substrates FOXO1A, FOXO3A, GSK3B, and AS160 was measured.
SMILES,palmitic acid-induced impairment of insulin-stimulated membrane localization of the AKT PH domain (AKT PH domain [1]),"insulin-stimulated phosphorylation of Akt, GSK3B, and FOXO3 (HepG2 cells [2])",lipid accumulation (HepG2 cells [3]),fluorescence intensity for intracellular Ca2+ (HepG2 cells [3]),insulin-stimulated membrane localization of the AKT PH domain (AKT PH domain [4]),"postprandial phosphorylation of AKT, FOXO1A, FOXO3A, GSK3B, and AS160, increase compared to the control group (HFD-fed mice)"
CCOc1nc2cccc(C(=O)O)c2n1Cc1ccc(-c2ccccc2-c2nc(=O)o[nH]2)cc1 [azilsartan],recovered,completely restored,significantly reduced,significantly reduced,rescued,
CCOc1nc2cccc(C(=O)O)c2n1Cc1ccc(-c2ccccc2-c2nnn[nH]2)cc1 [candesartan],,,,,,4- to 10 fold
CCCCc1ncc(/C=C(\Cc2cccs2)C(=O)O)n1Cc1ccc(C(=O)O)cc1 [eprosartan],did not rescue,,did not significantly affect,did not significantly affect,,
CCCCC1=NC2(CCCC2)C(=O)N1Cc1ccc(-c2ccccc2-c2nnn[nH]2)cc1 [irbesartan],did not rescue,,did not significantly affect,did not significantly affect,,
CCCCc1nc(Cl)c(CO)n1Cc1ccc(-c2ccccc2-c2nn[nH]n2)cc1 [losartan],did not rescue,,did not significantly affect,did not significantly affect,,
CCCc1nc2c(C)cc(-c3nc4ccccc4n3C)cc2n1Cc1ccc(-c2ccccc2C(=O)O)cc1 [telmisartan],did not rescue,,did not significantly affect,did not significantly affect,,
